The text below walks through data of PubChem BioAssay AID1259407 (Chemical Carcinogenesis Research Information System (CCRIS), 2018).

The data set relates to CCRIS mutagenicity, Ames/micronucleus/aberration tests. Nature of the data set: CCRIS mutagenicity studies.
The mark [1] stands for this setting: Test System: AMES SALMONELLA TYPHIMURIUM, Strain/Indicator: TA98, Metabolic Activation: NONE, Method: STANDARD PLATE.
The mark [2] stands for this setting: Test System: AMES SALMONELLA TYPHIMURIUM, Strain/Indicator: TA98, Metabolic Activation: RAT, LIVER, S-9, AROCLOR 1254, Method: STANDARD PLATE.
Where [3] appears, read: Test System: AMES SALMONELLA TYPHIMURIUM, Strain/Indicator: TA100, Metabolic Activation: NONE, Method: STANDARD PLATE.
Where [4] appears, read: Test System: AMES SALMONELLA TYPHIMURIUM, Strain/Indicator: TA100, Metabolic Activation: RAT, LIVER, S-9, AROCLOR 1254, Method: STANDARD PLATE.
[5] abbreviates: Test System: AMES SALMONELLA TYPHIMURIUM, Strain/Indicator: TA1535, Metabolic Activation: NONE, Method: STANDARD PLATE.
Setting [6] is: Test System: AMES SALMONELLA TYPHIMURIUM, Strain/Indicator: TA1535, Metabolic Activation: RAT, LIVER, S-9, AROCLOR 1254, Method: STANDARD PLATE.
[7] abbreviates: Test System: AMES SALMONELLA TYPHIMURIUM, Strain/Indicator: TA1537, Metabolic Activation: NONE, Method: STANDARD PLATE.
Setting [8] is: Test System: AMES SALMONELLA TYPHIMURIUM, Strain/Indicator: TA1537, Metabolic Activation: RAT, LIVER, S-9, AROCLOR 1254, Method: STANDARD PLATE.
Setting [9] is: Test System: AMES SALMONELLA TYPHIMURIUM, Strain/Indicator: TA1538, Metabolic Activation: NONE, Method: STANDARD PLATE.
The mark [10] stands for this setting: Test System: AMES SALMONELLA TYPHIMURIUM, Strain/Indicator: TA1538, Metabolic Activation: RAT, LIVER, S-9, AROCLOR 1254, Method: STANDARD PLATE.

Active and inactive are the calls of the source. How the calls were made is not given here.

As to `CC[C@H](C)[C@@H]([C@@H](CC(=O)N1CCC[C@H]1[C@H](OC)[C@@H](C)C(=O)N[C@@H](Cc1ccccc1)c1nccs1)OC)N(C)C(=O)[C@@H](NC(=O)[C@H](C(C)C)N(C)C)C(C)C`, the mutagenic call by setting is: (Test System: AMES SALMONELLA TYPHIMURIUM, Strain/Indicator: TA98, Metabolic Activation: HAMSTER, LIVER, S-9, AROCLOR 1254, Method: STANDARD PLATE) “inactive; negative”; under setting [1], “inactive; negative”; under setting [2], “inactive; negative”; (Test System: AMES SALMONELLA TYPHIMURIUM, Strain/Indicator: TA100, Metabolic Activation: HAMSTER, LIVER, S-9, AROCLOR 1254, Method: STANDARD PLATE) “inactive; negative”; under setting [3], “inactive; negative”; under setting [4], “inactive; negative”. The mutagenic call was “inactive; negative” (Test System: AMES SALMONELLA TYPHIMURIUM, Strain/Indicator: TA1535, Metabolic Activation: HAMSTER, LIVER, S-9, AROCLOR 1254, Method: STANDARD PLATE); “inactive; negative” under setting [5]; “inactive; negative” under setting [6]; “inactive; negative” (Test System: AMES SALMONELLA TYPHIMURIUM, Strain/Indicator: TA1537, Metabolic Activation: HAMSTER, LIVER, S-9, AROCLOR 1254, Method: STANDARD PLATE); “inactive; negative” under setting [7]; “inactive; negative” under setting [8]. The mutagenic call was “inactive; negative” (Test System: AMES SALMONELLA TYPHIMURIUM, Strain/Indicator: TA1538, Metabolic Activation: HAMSTER, LIVER, S-9, AROCLOR 1254, Method: STANDARD PLATE); “inactive; negative” under setting [9]; “inactive; negative” under setting [10]; “active; positive. reevaluation of results: inconclusive” (Test System: MOUSE LYMPHOMA, Strain/Indicator: L5178Y (TK+/TK-), Metabolic Activation: NONE, Method: SUSPENSION/PLATE); “inactive; negative. reevaluation of results: negative” (Test System: MOUSE LYMPHOMA, Strain/Indicator: L5178Y (TK+/TK-), Metabolic Activation: RAT, LIVER, S-9, AROCLOR 1254, Method: SUSPENSION/PLATE).

For the compound `C/C=C/c1cc(OC)c(OC)cc1OC`, the mutagenic call (Test System: AMES SALMONELLA TYPHIMURIUM, Strain/Indicator: TA97, Metabolic Activation: NONE, Method: STANDARD PLATE) was “inactive; negative”; the mutagenic call (Test System: AMES SALMONELLA TYPHIMURIUM, Strain/Indicator: TA97, Metabolic Activation: RAT, LIVER, S-9, AROCLOR 1254, Method: STANDARD PLATE) was “inactive; negative”; the mutagenic call under setting [1] was “inactive; negative”; the mutagenic call under setting [2] was “inactive; negative”; the mutagenic call (Test System: AMES SALMONELLA TYPHIMURIUM, Strain/Indicator: TA100, Metabolic Activation: NONE) is “inactive; negative”; the mutagenic call under setting [3] is “inactive; negative”. For the same compound, the mutagenic call runs as follows: under setting [4], “inactive; negative”; (Test System: AMES SALMONELLA TYPHIMURIUM, Strain/Indicator: TA100, Metabolic Activation: S-9) “active; positive”; under setting [5], “active; positive”; under setting [6], “inactive; negative”; under setting [7], “inactive; negative”; under setting [8], “inactive; negative”. Besides, the mutagenic call was “inactive; negative” under setting [9]; “inactive; negative” under setting [10]; “active; positive” (Test System: UDS RAT HEPATOCYTES, Strain/Indicator: THY INCORP, Metabolic Activation: NONE, Method: LIQUID SCINTILLATION COUNTING).

As for `COc1cc(CNC(=O)C(C)Br)ccc1O` (configuration not stated), the mutagenic call under setting [3] is “active; positive”.

Turning to `Oc1ccc2ccc3c4ccccc4ccc3c2c1`, the mutagenic call under setting [1] was “inactive; negative”, the mutagenic call under setting [3] was “inactive; negative” and the mutagenic call under setting [4] was “active; positive”.

With `C[C@]1(O)CC[C@H]2[C@@H]3CCC4=CC(=O)CC[C@]4(C)[C@@]3(F)[C@@H](O)C[C@@]21C`, the mutagenic call runs as follows: (End Point: IN VITRO CHROMOSOMAL ABERRATIONS, Test System: HUMAN PERIPHERAL LYMPHOCYTES, Metabolic Activation: NONE) “active; positive after 72 hr treatment at 2 lower doses; positive after 48 or 72 hr trea”; (End Point: IN VIVO MICRONUCLEUS, Test System: BONE MARROW POLYCHROMATIC ERYTHROCYTES, Species: MOUSE, Strain/Sex: SWISS ALBINO/MALE, Route: IP) “active; positive”; (Test System: AMES SALMONELLA TYPHIMURIUM, Strain/Indicator: TA97A, Metabolic Activation: NONE, Method: STANDARD PLATE) “inactive; negative; growth inhibition at highest dose”; (Test System: AMES SALMONELLA TYPHIMURIUM, Strain/Indicator: TA97A, Metabolic Activation: RAT, LIVER, S-9, PHENOBARBITAL, Method: PREINCUBATION) “inactive; negative”; under setting [1], “inactive; negative; growth inhibition at highest dose”; (Test System: AMES SALMONELLA TYPHIMURIUM, Strain/Indicator: TA98, Metabolic Activation: RAT, LIVER, S-9, PHENOBARBITAL, Method: PREINCUBATION) “inactive; negative”. In addition, the mutagenic call is, setting by setting: under setting [3], “inactive; negative; growth inhibition at highest dose”; (Test System: AMES SALMONELLA TYPHIMURIUM, Strain/Indicator: TA100, Metabolic Activation: RAT, LIVER, S-9, PHENOBARBITAL, Method: PREINCUBATION) “inactive; negative”; (Test System: AMES SALMONELLA TYPHIMURIUM, Strain/Indicator: TA102, Metabolic Activation: NONE, Method: STANDARD PLATE) “inactive; negative; growth inhibition at highest dose”; (Test System: AMES SALMONELLA TYPHIMURIUM, Strain/Indicator: TA102, Metabolic Activation: RAT, LIVER, S-9, PHENOBARBITAL, Method: PREINCUBATION) “inactive; negative”; under setting [5], “inactive; negative; growth inhibition at highest dose”; (Test System: AMES SALMONELLA TYPHIMURIUM, Strain/Indicator: TA1535, Metabolic Activation: RAT, LIVER, S-9, PHENOBARBITAL, Method: PREINCUBATION) “inactive; negative”.

For the compound `COc1ccc(-c2nc(-c3ccc(C)cc3)c(-c3ccc(C)cc3)[nH]2)cc1OC`, the mutagenic call by setting is: under setting [1], “active; positive”; (Test System: AMES SALMONELLA TYPHIMURIUM, Strain/Indicator: TA98, Metabolic Activation: RAT LIVER S-9, 3-METHYLCHOLANTHRENE, SODIUM PHENOBARBITAL, Method: STANDARD PLATE) “inactive; negative”; under setting [3], “active; positive”; (Test System: AMES SALMONELLA TYPHIMURIUM, Strain/Indicator: TA100, Metabolic Activation: RAT LIVER S-9, 3-METHYLCHOLANTHRENE, SODIUM PHENOBARBITAL, Method: STANDARD PLATE) “inactive; negative”.
